pEC50: −log10 of the molar value.
Assays:
huSTING (HAQ) = huSTING (HAQ) (Homo sapiens (Human), UniProt Q86WV6, G230A/H232R/R293Q/R71H); test: THP-1 reporter cell line assay, THP-1 STING Lucia ISG cells; format: cell-based; settings: THP-1 STING Lucia ISG cells; 24 h; top concentration 50 μM; read-out: Cellular EC50 huSTING (HAQ)
huSTING (WT) = huSTING (WT) (Homo sapiens (Human), UniProt Q86WV6, H232R); test: THP-1 reporter cell line assay, THP-1-Dual KI-hSTING-R232 cells; format: cell-based; settings: read-out: Cellular EC50 huSTING (WT)
huSTING (WT), sequence (Q86WV6 whole entry H232R): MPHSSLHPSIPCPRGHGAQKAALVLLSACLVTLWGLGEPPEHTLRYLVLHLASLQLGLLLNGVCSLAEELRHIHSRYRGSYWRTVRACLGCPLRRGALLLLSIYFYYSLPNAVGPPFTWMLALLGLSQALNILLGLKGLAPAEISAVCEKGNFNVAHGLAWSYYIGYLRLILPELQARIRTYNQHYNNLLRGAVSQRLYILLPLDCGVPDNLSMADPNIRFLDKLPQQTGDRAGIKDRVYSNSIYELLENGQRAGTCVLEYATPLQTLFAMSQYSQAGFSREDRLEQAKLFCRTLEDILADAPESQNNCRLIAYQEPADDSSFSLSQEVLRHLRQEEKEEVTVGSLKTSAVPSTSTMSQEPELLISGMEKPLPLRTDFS

huSTING (HAQ), sequence (Q86WV6 whole entry R71H/G230A/H232R/R293Q): as the sequence (Q86WV6 whole entry H232R) above, with R71H, G230A, R293Q counted along it

pEC50 (huSTING (HAQ)) | pEC50 (huSTING (WT)) | SMILES
5.62 | 5.59 | CCOC(=O)c1sc2ccc(F)c(F)c2c1COc1ccc(C(N)=O)cc1 [Example 15, Ethyl 3-((4-carbamoylphenoxy)methyl)-4,5-difluorobenzo[b]thiophene-2-carboxylate]
4.83 | < 4.30 | CCOC(=O)c1sc2ccc(C)c(Cl)c2c1COc1ccc(C(N)=O)cc1 [Example 17, Ethyl 3-((4-carbamoylphenoxy)methyl)-4-chloro-5-methylbenzo[b]thiophene-2-carboxylate]
< 4.30 | < 4.30 | CCOC(=O)c1sc2cc(Cl)cc(F)c2c1COc1ccc(C(N)=O)cc1 [Example 19, Ethyl 3-((4-carbamoylphenoxy)methyl)-6-chloro-4-fluorobenzo[b]thiophene-2-carboxylate]
6.32 | 6.24 | CCOC(=O)c1sc2cccc(Br)c2c1COc1ccc(C(N)=O)cc1 [Example 21, Ethyl 4-bromo-3-((4-carbamoylphenoxy)methyl)benzo[b]thiophene-2-carboxylate]
5.12 | 4.77 | CCOC(=O)c1sc2cccnc2c1COc1ccc(C(N)=O)cc1 [Example 23, Ethyl 3-((4-carbamoylphenoxy)methyl)thieno[3,2-b]pyridine-2-carboxylate]
5.80 | 5.85 | CCOC(=O)c1sc2cccc(Cl)c2c1COc1ccc(C(N)=O)c(F)c1 [Example 25, Ethyl 3-((4-carbamoyl-3-fluorophenoxy)methyl)-4-chlorobenzo[b]thiophene-2-carboxylate]
< 4.30 | < 4.30 | CCOC(=O)c1sc2cccc(Cl)c2c1COc1cc(F)c(C(N)=O)c(F)c1 [Example 27, Ethyl 3-((4-carbamoyl-3,5-difluorophenoxy)methyl)-4-chlorobenzo[b]thiophene-2-carboxylate]
5.57 | 5.19 | CCOC(=O)c1sc2cccc(Cl)c2c1COc1ccc(C(N)=O)cc1OC [Example 29, Ethyl 3-((4-carbamoyl-2-methoxyphenoxy)methyl)-4-chlorobenzo[b]thiophene-2-carboxylate]
5.17 | 5.16 | CCOC(=O)c1sc2cc(F)cc(F)c2c1COc1ccc(C(N)=O)cc1 [Example 31, Ethyl 3-((4-carbamoylphenoxy)methyl)-4,6-difluorobenzo[b]thiophene-2-carboxylate]
6.18 | 6.05 | CCOC(=O)c1sc2cccc(OC)c2c1COc1ccc(C(N)=O)cc1 [Example 33, Ethyl 3-((4-carbamoylphenoxy)methyl)-4-methoxybenzo[b]thiophene-2-carboxylate]
6.18 | 5.89 | CCOC(=O)c1sc2cccc(C(F)(F)F)c2c1COc1ccc(C(N)=O)cc1 [Example 35, Ethyl 3-((4-carbamoylphenoxy)methyl)-4-(trifluoromethyl)benzo[b]thiophene-2-carboxylate]
5.42 | 5.32 | CCOC(=O)c1sc2cccc(Cl)c2c1COc1ccc(C(N)=O)cc1Cl [Example 37, Ethyl 3-((4-carbamoyl-2-chlorophenoxy)methyl)-4-chlorobenzo[b]thiophene-2-carboxylate]
5.83 | 5.75 | CCOC(=O)c1sc2cccc(Cl)c2c1COc1c(Cl)cc(C(N)=O)cc1Cl [Example 39, Ethyl 3-((4-carbamoyl-2,6-dichlorophenoxy)methyl)-4-chlorobenzo[b]thiophene-2-carboxylate]
6.10 | 5.61 | CCOC(=O)c1sc2cccc(Cl)c2c1COc1c(OC)cc(C(N)=O)cc1OC [Example 41, Ethyl 3-((4-carbamoyl-2,6-dimethoxyphenoxy)methyl)-4-chlorobenzo[b]thiophene-2-carboxylate]
5.87 | 5.42 | CCOC(=O)c1sc2cccc(Cl)c2c1COc1ccc(C(N)=O)cc1C#N [Example 43, Ethyl 3-((4-carbamoyl-2-cyanophenoxy)methyl)-4-chlorobenzo[b]thiophene-2-carboxylate]
4.89 | 4.61 | CCOC(=O)c1sc2cccc(Cl)c2c1COc1ccc(C(N)=O)nc1 [Example 45, Ethyl 3-(((6-carbamoylpyridin-3-yl)oxy)methyl)-4-chlorobenzo[b]thiophene-2-carboxylate]
4.73 | < 4.30 | CCOC(=O)c1sc2cccc(Cl)c2c1COc1ccc2c(N)noc2c1 [Example 47, Ethyl 3-(((3-aminobenzo[d]isoxazol-6-yl)oxy)methyl)-4-chlorobenzo[b]thiophene-2-carboxylate]
4.77 | 4.62 | CCOC(=O)c1sc2cccc(F)c2c1COc1ccc(C(N)=O)c(Cl)c1 [Example 49, Ethyl 3-((4-carbamoyl-3-chlorophenoxy)methyl)-4-fluorobenzo[b]thiophene-2-carboxylate]
< 4.30 | < 4.30 | CCOC(=O)c1sc2cccc(F)c2c1COc1ccc(C(N)=O)c(C(F)(F)F)c1 [Example 51, Ethyl 3-((4-carbamoyl-3-(trifluoromethyl)phenoxy)methyl)-4-fluorobenzo[b]thiophene-2-carboxylate]
< 4.30 | < 4.30 | CCOC(=O)c1sc2cccc(F)c2c1COc1ccc(C(N)=O)c(C)c1 [Example 53, Ethyl 3-((4-carbamoyl-3-methylphenoxy)methyl)-4-fluorobenzo[b]thiophene-2-carboxylate]
5.44 | < 4.30 | CCOC(=O)c1sc2cccc(F)c2c1COc1c(F)cc(C(N)=O)cc1Br [Example 55, Ethyl 3-((2-bromo-4-carbamoyl-6-fluorophenoxy)methyl)-4-fluorobenzo[b]thiophene-2-carboxylate]
6.08 | 4.32 | CCOC(=O)c1sc2cccc(C3CC3)c2c1COc1ccc(C(N)=O)cc1 [Example 60, Ethyl 3-((4-carbamoylphenoxy)methyl)-4-cyclopropylbenzo[b]thiophene-2-carboxylate]
6.02 | 5.78 | CCOC(=O)c1sc2cccc(C#N)c2c1COc1ccc(C(N)=O)cc1 [Example 62, Ethyl 3-((4-carbamoylphenoxy)methyl)-4-cyanobenzo[b]thiophene-2-carboxylate]
5.10 | < 4.30 | CCOC(=O)c1sc2cccc(Cl)c2c1COc1ccc(C(N)=O)c(F)c1F [Example 66, Ethyl 3-((4-carbamoyl-2,3-difluorophenoxy)methyl)-4-chlorobenzo[b]thiophene-2-carboxylate]
6.59 | 5.79 | CCOC(=O)c1sc2cccc(Cl)c2c1COc1c(F)cc(C(N)=O)cc1F [Example 68, Ethyl 3-((4-carbamoyl-2,6-difluorophenoxy)methyl)-4-chlorobenzo[b]thiophene-2-carboxylate]
5.13 | < 4.30 | CCOC(=O)c1sc2cccc(Cl)c2c1COc1c(C)cc(C(N)=O)cc1OC [Example 72, Ethyl 3-((4-carbamoyl-2-methoxy-6-methylphenoxy)methyl)-4-chlorobenzo[b]thiophene-2-carboxylate]
4.75 | < 4.30 | CCOC(=O)c1sc2cccc(Cl)c2c1CNc1ccc(C(N)=O)cc1 [Example 75, Ethyl 3-(((4-carbamoylphenyl)amino)methyl)-4-chlorobenzo[b]thiophene-2-carboxylate]
